# Patent EP2156836A1, “[…] PHARMACEUTICAL COMPOSITIONS CONSISTING OF A COMBINATION OF A 5 alpha-REDUCTASE ENZYME INHIBITOR AND A 1 alpha- […] RECEPTOR ANTAGONIST” (priority 2007, dated 2008)
# Like-named read-outs stand apart in the source and are kept apart here.
# What was measured:
# [1] = test system: Benign Prostatic Hyperplasia; settings: for Incontinence (patients/group) / Invasive Therapy due to BPH (patients/group) / Urinary Retention (patients/group) / Urinary Tract infection (patients/group) / Incontinence / Invasive Therapy due to BPH / Urinary Retention / Urinary Tract infection: 12 months; for Incontinence (patients/group) / Invasive Therapy due to BPH (patients/group) / Urinary Retention (patients/group) / Urinary Tract infection (patients/group) / Incontinence / Invasive Therapy due to BPH / Urinary Retention / Urinary Tract infection / Increase in symptoms according to the score from American Association of Urology at 12 months of treatment / Increase in symptoms according to the score from American Association of Urology at 12 months of treatment (patients/group): same dosing as E17; for Clinical Progression of BPH at 12 months of treatment (patients/group): daily tablet 12 months: Doxazosine titrated 1 to 8 mg, combination Dutasteride 0.5 mg + Doxazosine 1 mg; for Clinical Progression of BPH at 12 months of treatment (patients/group) / Clinical Progression of BPH at 12 months of treatment: Dutasteride 0.5 mg; for Clinical Progression of BPH at 12 months of treatment (patients/group) / Increase in symptoms according to the score from American Association of Urology at 12 months of treatment (patients/group): n=40 per group; for Side Effects / patients who discontinued the treatment: human, in vivo; for Incontinence / Invasive Therapy due to BPH / Urinary Retention / Urinary Tract infection / Clinical Progression of BPH at 12 months of treatment / Increase in symptoms according to the score from American Association of Urology at 12 months of treatment: percent of patients; for Clinical Progression of BPH at 12 months of treatment: Doxazosine titrated 1 to 8 mg, combination 0.5 mg + 1 mg, n=40
# Method: Said clinical trial was applied in 160 male patients with a 64-year old average, wherein the symptoms manifested according to Urology American Association ranking were scored (score is assigned according to the following criteria: from 0= No symptoms to 35= severe symptoms). […] Finally, vital signs, treatment compliance and side effects were assessed for each of the groups.
# (§1) At the beginning and at the end of said clinical trial the following examinations were applied to the patients: digital rectal examination, prostate-specific antigen assessment and urine analysis.
# Subjects were randomized and assigned to a double-blind study divided into 4 groups.
# [2] = test system: prostate size; settings: cited from earlier work; for reduction of prostate size: Dutasteride daily dosage; for reduces prostate size: stated for the 5α-reductase enzyme inhibitors as a class
# [3] = cited from earlier work; for serum concentrations as share of the equilibrium state concentration: daily dosage
# [4] = test system: Benign Prostatic Hyperplasia; assay type: in vivo, male patients; settings: for Clinical Progression of BPH at 12 months of treatment (patients/group) / Clinical Progression of BPH at 12 months of treatment: daily tablet 12 months: Alfuzosine 10 mg, Finasteride 5 mg; for Clinical Progression of BPH at 12 months of treatment (patients/group): combination Finasteride 5 mg + Alfuzosine 5 mg; for Clinical Progression of BPH at 12 months of treatment (patients/group) / Increase in symptoms according to the score from American Association of Urology at 12 months of treatment (patients/group): n=40 per group; for Side Effects / patients who discontinued the treatment: human, in vivo; for Clinical Progression of BPH at 12 months of treatment: combination 5 mg + 5 mg, n=40
# Method: In this clinical trial several tests were performed wherein Placebo, Finasteride, Alfuzosine and a combination of Finasteride/Alfuzosine were administered to a population of patients diagnosed with Benign Prostatic Hyperplasia.
# Said clinical trial was applied in 160 male patients with a 60-year old average, wherein the symptoms manifested according to Urology American Association ranking were scored (score is assigned according to the following criteria: from 0= No symptoms to 35= severe symptoms). […] Finally, vital signs, treatment compliance and side effects were assessed for each of the groups.
# as §1
# Subjects were randomized and assigned to a double-blind study divided into 4 groups. Randomization was stratified and medicament administration at night. • Group 1 Placebo: Patients received a daily tablet along 12 months. • Group 2 Finasteride: Patients received a daily 5 mg tablet along 12 months. • Group 3 Alfuzosine: Patients received a daily 10 mg tablet along 12 months. • Group 4 Combination: Patients received a tablet with a combination of Finasteride 5 mg and Alfuzosine 5 mg daily along 12 months.
# [5] = test system: BPH; settings: cited from earlier work
# [6] = in vivo; cited from earlier work
# [7] = test system: plasmatic proteins; settings: plasma; cited from earlier work
# [8] = test system: blood pressure; settings: after oral administration; cited from earlier work
# [9] = percent of patients, 12 months, same dosing as E1
# [10] = percent of patients, same dosing as E1
SMILES,Incontinence (patients/group) [1],Invasive Therapy due to BPH (patients/group) [1],Urinary Retention (patients/group) [1],Urinary Tract infection (patients/group) [1],Clinical Progression of BPH at 12 months of treatment (patients/group) [1],Side Effects [1],patients who discontinued the treatment [1] [%],Incontinence [1] [%],Invasive Therapy due to BPH [1] [%],Urinary Retention [1] [%],Urinary Tract infection [1] [%],Clinical Progression of BPH at 12 months of treatment [1] [%],Increase in symptoms according to the score from American Association of Urology at 12 months of treatment [1] [%],Increase in symptoms according to the score from American Association of Urology at 12 months of treatment (patients/group) [1],reduces prostate size [2],"Incontinence (patients/group) ([4]; 12 months, same dosing as E1)","Invasive Therapy due to BPH (patients/group) ([4]; 12 months, same dosing as E1)","Urinary Tract infection (patients/group) ([4]; 12 months, same dosing as E1)",Clinical Progression of BPH at 12 months of treatment (patients/group) [4],Side Effects [4],also measured
C[C@]12C=CC(=O)N[C@@H]1CC[C@@H]1[C@@H]2CC[C@]2(C)[C@@H](C(=O)Nc3cc(C(F)(F)F)ccc3C(F)(F)F)CC[C@@H]12 [Dutasteride],5/40,2/40,15/40,1/40,11/40,"erectile dysfunction, libido decrease and/or abnormal ejaculation",60,12.5,5,37.5,2.5,27.5,35,14/40,up to 50%,–,–,–,–,–,reduction of prostate size ([2]; in some patients): up to 50%; reduction of prostate size [2]: at least 20%; half-life in blood ([3]; blood): 3-5 weeks; serum concentrations as share of the equilibrium state concentration ([3]; after one month): 65%; serum concentrations as share of the equilibrium state concentration ([3]; after three months): approximately 90%
CC(C)(C)NC(=O)[C@H]1CC[C@H]2[C@@H]3CC[C@H]4NC(=O)C=C[C@]4(C)[C@H]3CC[C@]12C [Finasteride],–,–,–,–,–,–,–,–,–,–,–,–,–,–,up to 50%,3/40,2/40,1/40,13/40,"erectile dysfunction, libido decrease and/or abnormal ejaculation","patients who discontinued the treatment [4]: 45%; Incontinence [4, 9]: 7.5%; Invasive Therapy due to BPH [4, 9]: 5%; Urinary Tract infection [4, 9]: 2.5%; Clinical Progression of BPH at 12 months of treatment ([4]; percent of patients): 32.5%; Increase in symptoms according to the score from American Association of Urology at 12 months of treatment [4, 10]: 37.5%; Increase in symptoms according to the score from American Association of Urology at 12 months of treatment (patients/group) ([4]; same dosing as E1): 15/40; Incidence of side effects during Finasteride treatment ([5]; most common: erectile dysfunction, decrease in ejaculated semen volume): about 3%; reduction in DHT concentration in blood and in prostate gland ([5]; patients who suffer BPH): ≤ 30%; reduction of prostate-specific antigen (PSA) serum levels ([5]; patients who suffer BPH): up to 50%; efficacy in an analysis of six clinical studies ([5]; when prostate weighed >40 g, Logan YT, Belgeri MT 2005): very effective"
COc1cc2nc(N3CCN(C(=O)C4COc5ccccc5O4)CC3)nc(N)c2cc1OC (stereo not drawn) [Doxazosine],6/40,5/40,22/40,3/40,18/40,"dizziness, postural hypotension, and asthenia",99,15,12.5,55,7.5,45,50,20/40,–,–,–,–,–,–,share of the dose removed by urine [6]: 9%; bound to plasmatic proteins [7]: 98-99%; duration of hypotensive effects (remaining active) [8]: at least 24 hours; time at which hypotensive effects are observed [8]: 2 h
COc1cc2nc(N(C)CCCNC(=O)C3CCCO3)nc(N)c2cc1OC (stereo not drawn) [Alfuzosine],–,–,–,–,–,–,–,–,–,–,–,–,–,–,–,4/40,4/40,2/40,18/40,"dizziness, postural hypotension, asthenia and impotence","Urinary Retention (patients/group) ([4]; 12 months, same dosing as E1): 21/40; patients who discontinued the treatment [4]: 95%; Incontinence [4, 9]: 10%; Invasive Therapy due to BPH [4, 9]: 10%; Urinary Retention [4, 9]: 52.5%; Urinary Tract infection [4, 9]: 5%; Clinical Progression of BPH at 12 months of treatment ([4]; percent of patients): 45%; Increase in symptoms according to the score from American Association of Urology at 12 months of treatment [4, 10]: 47.5%; Increase in symptoms according to the score from American Association of Urology at 12 months of treatment (patients/group) ([4]; same dosing as E1): 19/40"
